Laboratory results: patent US7569526B2, “Anti-oxidants in soluble oil base for metal working fluids” (Crompton Corporation, priority 2003, dated 2009)
Values joined by “and” are separate entries in the source; they are usually repeats but may differ in a detail not shown here. Equal entries are not always repeated.

Experiments:
[1] = Modified ASTM D3946 bottle test, sediment and pH (Examples 25-34); format: physicochemical; conditions: 25° C.; filtered at end of test
Description: (§1) A modified ASTM D3946 method was run according to the following procedure:
(§2) 1. A 1-quart straight side jar was filled with 500 mL of emulsion. (Note: the straight sides of the jar allow culture plates to be immersed in the emulsion in situ. No steel chips were added.)
(§3) 2. While immersed in a 25° C. water bath, the jars were sparged with air using a disposable pipette at a flow rate of approximately 500 mL/min. (Note: this may need to be adjusted depending on the air supply and the amount of foaming observed).
(§4) 3. The pH was measured using standard pH paper or pH meter and bacteria/fungus counts were measured at one and two week intervals using culture plates (SaniCheck BF culture plates from Biosan Laboratories, Inc. were use in this study, but there are many suppliers available). Although the manufacturers protocol called for incubation between 24 and 36 hours, the bacteria counts were measured after 24, 30, and 48-hour incubations at 28° C. The bacterial onset was measured as the number of weeks necessary to observe at least a 10^3 bacteria count/mL on the culture plate (threshold value of this type of plate). Optionally, the average bacterial count can be calculated over the length of the test period.
4. At the end of the test, the solutions were filtered through medium filter paper (Whatman #2) and the amount of sediment recovered was weighed.
(§5) 5. Unless noted above, the other test details are identical to ASTM D3946.
In this case, after 22 weeks the pH broke and dropped from 9.0 to 7.0. In all other samples, the pH was measured between 8.5 and 9.0, without significant change over the test period.

bacteria = test: Modified ASTM D3946 bottle test, bacteria count and onset (Examples 25-34); format: cell-based; conditions: 30 hours of incubation
Description: as §1, §2, §3, §4, §5
The biological activity was evaluated using a Sanicheck BF Conversion Chart. […]

[2] = RBOT, standard ASTM D2272 (150 C.), bomb life; format: physicochemical
Text: (§6) The antioxidants used in this study were received from internal and external commercial sources without alteration. The sample of butylated DPA was from a preparation of Naugalube 640 in which the sample was enriched in butylated DPA.
The ASTM D2272 method was run according to the standard procedure using a 10/90 (oil/water) emulsion as a test sample.

[3] = TOST, standard ASTM D943 (95° C.), acid number; format: physicochemical; conditions: 0.5% Triadine-3 in Hyprene H100; two separate runs; baseline
Text: as §6
Combining the results of Examples 11-24 with those of Examples 1-10, the synergies involved in the oxidation testing used can be seen. […] Hyprene H100 is a 100 SUS naphthenic oil. Although there is a large variation in the baseline, the general antioxidant chemistry trends (phenolic vs. aminic) were consistent.

[4] = Modified ASTM D2272 (150 C.), constant time; format: physicochemical; conditions: after oxidation
Description: 1. Charge the vessel with 50 grams of the emulsion sample provided.
3. Unless noted above, the other test details are identical to ASTM D2272.
With the success of the 95° C. modified ASTM, thermal breakdown for the metalworking fluids at even higher temperature was tested. The test chosen was a modified ASTM D2272 (RBOT) which is run at 150° C. in a sealed bomb, which should provide sufficient stress to provide significant oxidative breakdown of the metalworking fluid. The test was modified so that after the inhibited sample had reduced pressure by 175 psi, all of the oxidations were stopped so that the time of the oxidation would be a constant (typically the test is run to a constant pressure drop value and the time is allowed to vary). […] Additionally, the pH of all samples dropped from the initial 9.0 to 3.0, with the exception of the sample of Naugalube 640, which dropped to 7.0.

[5] = Modified ASTM D943 oxidation (95 C.), constant time; format: physicochemical; conditions: aging time 312 hrs
Description: 1. Fill the oxidation test tube with 300 ml of the emulsion sample provided.
2. When the first sample containing no antioxidant or biocide reaches a TAN (total acid number) of 2.0 mg/g KOH, stop all of the oxidations at that same time and measure the TAN. During the course of the testing it may be necessary to add a small amount of defoamer (1 drop of Foam Ban MS-575 from Ultra Additives) to prevent excessive foaming and loss of sample out of the top of the test apparatus. 3. Unless noted above the other test details are identical to ASTM D943
Accordingly, additional thermal stress was applied to accentuate differences in antioxidant performance. The test chosen to do this was a modified ASTM D943 run at 95° C., which it was expected would provide some oxidative breakdown of the metalworking fluid. The test was modified so that after the uninhibited sample had reached a TAN value of 2 mg KOH/g all of the oxidations were stopped so that the time of the oxidation would be a constant (typically the test is run to a constant TAN value and the time is allowed to vary).

CC(C)(C)c1cc(CCC(=O)OCCSCCOC(=O)CCc2cc(C(C)(C)C)c(O)c(C(C)(C)C)c2)cc(C(C)(C)C)c1O [AX 15, Thiodiethylene-bis(3,5-di-t-butyl-4-hydroxyhydrocinnamate)]
Sediment [1]: reduced the sediment

Cc1cc(C(C)(C)C)c(O)c(C(C)(C)C)c1 [BHT, 2,6-di-t-butyl hydroxytoluene]
Sediment [1]: antagonistically increased the sediment in combination with biocide
synergy of antioxidant and biocide on onset time (bacteria): weakest

OCCN1CN(CCO)CN(CCO)C1 [Triadine 3, 1,3,5-tris(hydroxyethyl)-s-triazine]
Bomb Life ([2]; 0.5% Triadine-3 in Hyprene H100, two separate runs, baseline): 35 min and 37 min
Oxidation Lifetime [3]: 492 h and 836 h

butylated octylated diphenylamine [Naugalube 640]
Sediment [1]: reduced the sediment
synergy of antioxidant and biocide on onset time (bacteria): strongest
Bomb Life (min) ([2]; 150 C., Table 1 blends): terminated before a break point was ever observed
Cream (%) [4]: < 1.0%
pH ([4]; initial 9.0): 7.0

butylated octylated diphenylamine [butylated DPA]
Sediment [1]: reduced the sediment

mono-, di-, and tri-, nonylated diphenylamine [Naugalube 438L]
Cream (%) [5]: no significant cream

octylated phenyl-α-naphthylamine [Naugalube APAN]
Cream (%) [5]: no significant cream
